{"source": "patent US7662388B2", "about": "“Endogenous peptide and active subfragments thereof” (Innoventus Project AB, priority 2003, dated 2010)", "molecules": {"B1": {"name": "Endostatin: anti-angiogenic factor included in one tumour study for comparison (protein, UniProt P39060 1572-1754, looked up)", "Endostatin": "HSHRDFQPVLHLVALNSPLSGGMRGIRGADFQCFQQARAVGLAGTFRAFLSSRLQDLYSIVRRADRAAVPIVNLKDELLFPSWEALFSGSEGPLKPGARIFSFDGKDVLRHPTWPQKSVWHGSDPNGRRLTESYCETWRTEAPSATGQASSLLGGRLLGQSAASCHHAYIVLCIENSFMTASK", "modifications": "Endostatin", "notes": "anti-angiogenic factor included in one tumour study for comparison"}, "B2": {"name": "PCI: plasma protein of approximately the same mass as HRGP, specificity control (protein, UniProt P05154 26-406, looked up)", "Plasma serine protease …": "EMKKRVEDLHVGATVAPSSRRDFTFDLYRALASAAPSQSIFFSPVSISMSLAMLSLGAGSSTKMQILEGLGLNLQKSSEKELHRGFQQLLQELNQPRDGFQLSLGNALFTDLVVDLQDTFVSAMKTLYLADTFPTNFRDSAGAMKQINDYVAKQTKGKIVDLLKNLDSNAVVIMVNYIFFKAKWETSFNHKGTQEQDFYVTSETVVRVPMMSREDQYHYLLDRNLSCRVVGVPYQGNATALFILPSEGKMQQVENGLSEKTLRKWLKMFKKRQLELYLPKFSIEGSYQLEKVLPSLGISNVFTSHADLSGISNHSNIQVSEMVHKAVVEVDESGTRAAAATGTIFTFRSARLNSQRLVFNRPFLMFIVDNNILFLGKVNRP"}, "B3": {"name": "His-HRGP: recombinant full-length HRGP produced in HEK-293-EBNA cells with a His-tag (protein)", "chain": "VSPTDCSAVEPEAEKALDLINKRRRDGYLFQLLRIADAHLDRVENTTVYYLVLDVQESDCSVLSRKYWNDCEPPDSRRPSEIVIGQCKVIATRHSHESQDLRVIDFNCTTSSVSSALANTKDSPVLIDFFEDTERYRKQANKALEKYKEENDDFASFRVDRIERVARVRGGEGTGYFVDFSVRNCPRHHFPRHPNVFGFCRADLFYDVEALDLESPKNLVINCEVFDPQEHENINGVPPHLGHPFHWGGHERSSTTKPPFKPHGSRDHHHPHKPHEHGPPPPPDERDHSHGPPLPQGPPPLLPMSCSSCQHATFGTNGAQRHSHNNNSSDLHPHKHHSHEQHPHGHHPHAHHPHEHDTHRQHPHGHHPHGHHPHGHHPHGHHPHGHHPHCHDFQDYGPCDPPPHNQGHCCHGHGPPPGHLRRRGPGKGPRPFHCRQIGSVYRLPPLRKGEVLPLPEANFPSFPLPHHKHPLKPDNQPFPQSVSESCPGKFKSGFPQVSMFFTHTFPK", "modifications": "left off: small tags and cut ends", "notes": "recombinant full-length HRGP produced in HEK-293-EBNA cells with a His-tag"}, "B4": {"name": "His 5: recombinant His/Pro-rich domain (central region) of human HRGP (protein, listed as Homo sapiens)", "chain": "HLGHPFHWGGHERSSTTKPPFKPHGSRDHHHPHKPHEHGPPPPPDERDHSHGPPLPQGPPPLLPMSCSSCQHATFGTNGAQRHSHNNNSSDLHPHKHHSHEQHPHGHHPHAHHPHEHDTHRQHPHGHHPHGHHPHGHHPHGHHPHGHHPHC"}, "B5": {"name": "His 4: recombinant truncated version of HRGP that covers the complete central region (protein, listed as Homo sapiens)", "chain": "VSPTDCSAVEPEAEKALDLINKRRRDGYLFQLLRIADAHLDRVENTTVYYLVLDVQESDCSVLSRKYWNDCEPPDSRRPSEIVIGQCKVIATRHSHESQDLRVIDFNCTTSSVSSALANTKDSPVLIDFFEDTERYRKQANKALEKYKEENDDFASFRVDRIERVARVRGGEGTGYFVDFSVRNCPRHHFPRHPNVFGFCRADLFYDVEALDLESPKNLVINCEVFDPQEHENINGVPPHLGHPFHWGGHERSSTTKPPFKPHGSRDHHHPHKPHEHGPPPPPDERDHSHGPPLPQGPPPLLPMSCSSCQHATFGTNGAQRHSHNNNSSDLHPHKHHSHEQHPHGHHPHAHHPHEHDTHRQHPHGHHPHGHHPHGHHPHGHHPHGHHPHC"}}, "key": {"[1]": {"tested_on": "Primary bovine adrenal cortex capillary endothelial (BCE) cells", "experiment": "chemotaxis assay of synthetic peptides (Table 2)", "format": "cell-based", "details": "for Inhibition of chemotaxis: 100 ng/ml peptide, FGF-2 10 ng/ml, BCE cells, 5 h; for inhibition of chemotaxis, stated in words: chemotaxis assay of table 2", "description": "Synthetic peptides were produced by Multiple Peptide Systems, San Diego Calif., USA, and dissolved in 1 mM ZnCl2/0.5xPBS at a stock concentration of 1 mg/ml. The sequences of the peptides were as follows:\nA migration assay was performed in a modified Boyden chamber as described earlier (Auerbach et al., 1991) using micropore polycarbonate filters (8 μm thick, 8 μm pore) coated with type-1 collagen solution at 100 μg/ml (Vitrogen 100, Collagen Corp). Primary bovine adrenal cortex capillary endothelial (BCE) cells were trypsinized and resuspended at a concentration of 7.5×10^5 cells/ml in Dulbecco's modified essential medium (Invitrogen) containing 0.25% BSA and Trasylol at 1000 KIE. The cell suspension was placed in the upper chamber. In the lower chamber below the filter was placed medium containing 0.25% BSA and when indicated, 10 ng/ml fibroblast growth factor (FGF-2; Peprotech). Recombinant HRGP produced in 293 cells, alternatively, synthetic peptides, all at a final concentration of 100 ng/ml (or as indicated), was placed in both chambers either alone or in combination with FGF-2. After 5 h at 37° C., the medium was removed and cells sticking to the filter were fixed in pure methanol and stained with Giemsa stain. The number of cells on the lower side of the filter was counted using an image analysis software (Easy Image Analysis) from TeknoOptik, Sweden. All samples were analyzed in series of at least six parallel wells for each treatment."}, "T241 fibrosarcoma cells": {"tested_on": "T241 fibrosarcoma cells", "experiment": "fibrosarcoma tumour growth in mice (HRGP)", "format": "in vivo", "details": "14 days", "description": "Animal work was carried out at the local animal facility and was approved by the Uppsala University board of animal experimentation and thus performed according to the UKCCCR guidelines for the welfare of animals in experimental neoplasia (Workman et al (1988)). The mice were anesthetized with isoflurane (Forene; Abbott) during all manipulations. Female, 5 week old, C57BL6/1 mice (Mollegard/Bomhultgard, Denmark) were injected with 0.5×10^6 T241 fibrosarcoma cells subcutaneously (s.c.) into the left flank. Animals carrying palpable tumours were randomized (n=7-10 animals/treatment group) and received treatment with vehicle (PBS), 4 mg/kg/day of pHRGP or 5 mg/kg/day of human IgG or His-HRGP, given as daily subcutaneous injections in the right flank. The tumours were measured with a caliper once a day, in a blind procedure, and volumes were calculated by the formula […]. When the tumours reached the upper limit of 2 cm^3, the mice were sacrificed. Three animals in each group were perfused with 4% paraformaldehyde in PBS pH 7.4. Tumours were embedded in paraffin according to standard histological procedures and sectioned at […] thickness.\nC57/bl6 mice were inoculated subcutaneously with T241 fibrosarcoma cells on their left flank and when the tumours were palpable (after 4-6 days), a daily treatment was initiated with HRGP or control (PBS; FIG. 2A, or human IgG; FIG. 2B). Endostatin was included in one study for comparison (FIG. 2B). The treatment was given as subcutaneous injections in the right flank until the size of the control tumours reached the upper limit of […] (11 days; FIG. 2A, 14 days; FIG. 2B). Injections with both pHRGP (4 mg/kg/day) and His-HRGP (5 mg/kg/day) led to a drastic reduction in tumour growth and at the time of sacrifice, the size of the tumours was reduced by 67% (FIG. 2A) and 61% (FIG. 2B) respectively, compared to control-treated animals. Endostatin treatment (25 mg/kg/day) lacked significant inhibitory effect on tumour growth in this model (32% decrease)."}, "primary BCE cells": {"tested_on": "primary BCE cells", "experiment": "chemotaxis (migration) assay in modified Boyden chamber, BCE cells", "format": "cell-based, bovine", "details": "100 ng/ml protein, FGF-2 5 ng/ml, 5 h", "description": "The porcine aortic endothelial (PAE) cell line overexpressing FGF receptor-1 (FGFR-1) (Wennström et al 1992) was cultured in Ham's F12/10% fetal bovine serum (FCS) and NIH 3T3 murine fibroblasts were cultured in Dulbecco's modified medium (DMEM)/10% newborn calf serum (NCS). F12, DMEM and serum were bought from Life Technologies. Primary bovine adrenal cortex capillary endothelial (BCE) cells were cultured on gelatin-coated dishes in DMEM/10% NCS and 2 ng/ml FGF-2 (Boehringer Mannheim). For chemotaxis assays, both PAE and NIH 3T3 cells were serum-starved over night in 0.1% BSA and BCE cells in 0.5% NCS. Human embryonic kidney (HEK) 293-EBNA cells were cultured in DMEM/10% FCS. Approximately every second month they were given 0.25 mg/ml G418 (Calbiochem) to ensure positive selection of the EBNA-1 expressing cells.\n(§1) A migration assay was performed in a modified Boyden chamber as described earlier (Auerbach et al., 1991) using micropore polycarbonate filters (8 μm thick, 8 μm pore) coated with type-1 collagen solution at 100 μg/ml (Vitrogen 100, Collagen Corp). BCE, PAE/FGFR-1 or NIH 3T3 cells were preincubated or not with HRGP (100 ng/ml) for 30 min, trypsinised and resuspended at a concentration of 7.5×10^5 cells/ml in Dulbecco's modified essential medium (Invitrogen) containing 0.25% BSA and Trasylol at 1000 KIE. FGF-2 and VEGF-A was used at 5 ng/ml, HRGP and the protein C inhibitor (PCI) at 100 ng/ml and BSA at 0.25%. After 5 h at 37° C., migrated cells were stained with Giemsa and counted using an image analysis software (Easy Image Analysis) from Tekno Optik AB, Sweden. All samples were analysed in at least six parallel wells for each treatment."}, "endothelial cells": {"tested_on": "endothelial cells", "experiment": "chemotaxis of endothelial cells towards FGF-2, truncated HRGP proteins", "format": "cell-based", "details": "recombinant truncated forms of HRGP", "description": "as §1\nTo determine which part of HRGP was responsible for the anti-angiogenic effect, recombinant truncated forms of the protein were produced (FIG. 5A). Truncated versions containing the C-terminal part of HRGP, but lacking an intact N-terminus, were not possible to produce, maybe due to instability."}}}
{"molecule": "AHHPHEHDTHRQHPHG [Pep 10]", "values": [{"measurement": "Inhibition of chemotaxis", "setting": "[1]", "value": "+"}]}
{"molecule": "Ac-AHHPHEHDTH-NH2 [Pep 13A]", "values": [{"measurement": "Inhibition of chemotaxis", "setting": "[1]", "value": "+"}]}
{"molecule": "Ac-AHHPHEHDTHRQHPH-NH2 [Pep 12A]", "values": [{"measurement": "Inhibition of chemotaxis", "setting": "[1]", "value": "+"}]}
{"molecule": "Ac-EHDTH-NH2 [Pep 15A]", "values": [{"measurement": "Inhibition of chemotaxis", "setting": "[1]", "value": "+"}]}
{"molecule": "DLHPHEQHPHEHDTHG [Pep 11A]", "values": [{"measurement": "Inhibition of chemotaxis", "setting": "[1]", "value": "− (as compared to Pep 8 and Pep 11A)"}, {"measurement": "inhibition of chemotaxis, stated in words", "setting": "[1]", "value": "not to be effective"}]}
{"molecule": "DLHPHKHHSHEQHPHG [Pep 8]", "values": [{"measurement": "Inhibition of chemotaxis", "setting": "[1]", "value": "− (as compared to Pep 8 and Pep 11A)"}, {"measurement": "inhibition of chemotaxis, stated in words", "setting": "[1]", "value": "not to be effective"}]}
{"molecule": "KHHSHEQHPHGHHPHAHHPHEHDTHG [Pep 9A]", "values": [{"measurement": "Inhibition of chemotaxis", "setting": "[1]", "value": "+"}]}
{"molecule": "B1", "values": [{"measurement": "decrease of tumour growth", "setting": "T241 fibrosarcoma cells; 25 mg/kg/day, comparison", "value": 32, "unit": "%"}]}
{"molecule": "B2", "values": [{"measurement": "FGF-2-induced chemotaxis of BCE cells", "setting": "primary BCE cells", "value": "no effect"}]}
{"molecule": "B3", "values": [{"measurement": "reduction of tumour size compared to control-treated animals at sacrifice", "setting": "T241 fibrosarcoma cells; 5 mg/kg/day s.c. daily, control human IgG", "value": 61, "unit": "%"}]}
{"molecule": "B4", "values": [{"measurement": "inhibition of chemotaxis of endothelial cells towards FGF-2", "setting": "endothelial cells", "value": "inhibited chemotaxis"}, {"measurement": "inhibition of chemotaxis of endothelial cells towards FGF-2", "setting": "endothelial cells; listed as central region (His/Pro-rich domain) of human HRGP", "value": "inhibited chemotaxis as potently as the mature protein"}, {"measurement": "inhibition of chemotaxis of endothelial cells towards FGF-2", "setting": "endothelial cells; listed as central region of human HRGP", "value": "inhibit chemotaxis"}]}
{"molecule": "B5", "values": [{"measurement": "inhibition of chemotaxis of endothelial cells towards FGF-2", "setting": "endothelial cells", "value": "did not inhibit endothelial cell chemotaxis"}, {"measurement": "inhibition of chemotaxis of endothelial cells towards FGF-2", "setting": "endothelial cells; listed as His4", "value": "failure of His4 to inhibit endothelial cell chemotaxis"}]}
